Source: patent US20150010928A1, “MEANS AND METHODS FOR ASSESSING AN ENDOCRINE DISEASE OR DISORDER” (priority 2012, published 2015)
Marks after values point to notes of the source that are not given here. One block for each compound: values may come before it.

Test system: female rats
Assay: Plasma metabolite profiling (GC-MS, LC-MS, SPE-LC-MS) in female rats dosed once daily over 28 days (OECD 407)
Type: in vivo, rat
Design: key to TAG No 07 / Lysophosphatidylcholine (C17:0): ratio of treated group mean to untreated control group mean; key to 5-O-Methylsphingosine (d18:1) / Isopalmitic acid (C16:0) / Valine / Alanine / Ketoleucine / Serine / Lactate / Arginine: ratio of treated group mean to untreated control mean
Conditions: high dose; for Isopalmitic acid (C16:0): Table 17a; for Alanine / Arginine / Ketoleucine / Lactate / Proline / Serine / Valine: Table 17b; for 3-O-Methylsphingosine (d18:1) / 5-O-Methylsphingosine (d18:1) / 16-Methylheptadecanoic acid / Arachidonic acid (C20:cis[5,8,11,14]4) / Ceramide (d18:1, C24:1) / Ceramide (d18:1,C24:0) / Cholesterol / Cholesterolester No 01 / Dodecanol / Elaidic acid (C18:trans[9]1) / Galactose, lipid fraction / Glycerol phosphate, lipid fraction / Heptadecanoic acid (C17:0) / Lignoceric acid (C24:0) / Lysophosphatidylcholine (C17:0) / Phosphate, lipid fraction / Phosphatidylcholine (C18:0, C20:3) / Phytosphingosine / Sphingomyelin (d18:1, C16:0) / Sphingomyelin (d18:1,C24:0) / Sphingomyelin (d18:2, C16:0) / Sphingomyelin (d18:2,C18:0) / Stearic acid (C18:0) / TAG No 07 / Tricosanoic acid (C23:0) / alpha-Tocopherol / beta-Sitosterol / erythro-Sphingosine (d18:1) / myo-Inositol, lipid fraction / myo-Inositol-2-phosphate, lipid fraction / threo-Sphingosine (d18:1): Table 13b
Experimental: Each dose group in the studies consisted of five rats per sex. Additional groups of each 5 male and female animals served as controls. […] All animals of the animal population were kept under the same constant temperature (20-24±3° C.) and the same constant humidity (30-70%). The animals of the animal population were fed ad libitum. The food to be used was essentially free of chemical or microbial contaminants. Drinking water was also offered ad libitum. Accordingly, the water was free of chemical and microbial contaminants as laid down in the European Drinking Water Directive 98/83/EG. The illumination period was 12 hours light followed by 12 hours darkness (12 hours light, from 6:00 to 18:00, and 12 hours darkness, from 18:00 to 6:00). […] The test substances (compounds) in the Tables 1 to 17 below were dosed and administered as described in the Table 18.
In the morning of day 7, 14, and 28, blood was taken from the retroorbital venous plexus from fasted anaesthetized animals. From each animal, 1 ml of blood was collected with EDTA as anticoagulant. The samples were centrifuged for generation of plasma. All plasma samples were covered with a N2 atmosphere and then stored at −80° C. until analysis.
For mass spectrometry-based metabolite profiling analyses plasma samples were extracted and a polar and a non-polar (lipid) fraction was obtained. For GC-MS analysis, the non-polar fraction was treated with methanol under acidic conditions to yield the fatty acid methyl esters. Both fractions were further derivatised with O-methyl-hydroxyamine hydrochloride and pyridine to convert Oxogroups to O-methyloximes and subsequently with a silylating agent before analysis. In LC-MS analysis, both fractions were reconstituted in appropriate solvent mixtures. HPLC was performed by gradient elution on reversed phase separation columns. Mass spectrometric detection which allows target and high sensitivity MRM (Multiple Reaction Monitoring) profiling in parallel to a full screen analysis was applied as described in WO2003073464.
Steroids and their metabolites were measured by online SPE-LC-MS (Solid phase extraction-LC-MS).
Following comprehensive analytical validation steps, the data for each analyte were normalized against data from pool samples. These samples were run in parallel through the whole process to account for process variability. The significance of treatment group values specific for sex, treatmentduration and metabolite was determined by comparing means of the treated groups to the means of the respective untreated control groups using WELCH-test and quantified with treatment ratios versus control and p-values.
The identification of the most important biomarkers per toxicity pattern was done by a ranking of the analytes in the tables below. Therefore the metabolic changes in reference treatments of a given pattern (shown in the table) were compared with changes of the same metabolite in other unrelated treatments. […] The maximum absolute value of the respective TVALUE was taken to indicate the most important metabolite for the pattern.

Structure (SMILES): CN(N=O)C(=O)N[C@H]1C(O)O[C@H](CO)[C@@H](O)[C@@H]1O (mixture of isomers) [Streptozotocin]
- Isopalmitic acid (C16:0) (f7, female rats): 0.99
- Alanine (f7, female rats): 0.79
- Arginine (f7, female rats): 0.78
- Ketoleucine (f7, female rats): 0.85
- Lactate (f7, female rats): 0.77
- Proline (f7, female rats): 0.81
- Serine (f7, female rats): 0.88
- Valine (f7, female rats): 0.77
- Isopalmitic acid (C16:0) (f14, female rats): 1.12 *
- Alanine (f14, female rats): 0.91
- Arginine (f14, female rats): 0.88
- Ketoleucine (f14, female rats): 0.9
- Lactate (f14, female rats): 0.83
- Proline (f14, female rats): 0.83
- Serine (f14, female rats): 0.83
- Valine (f14, female rats): 0.85
- Isopalmitic acid (C16:0) (f28, female rats): 1.3 *
- Alanine (f28, female rats): 0.87
- Arginine (f28, female rats): 1.03
- Ketoleucine (f28, female rats): 0.87
- Lactate (f28, female rats): 0.57
- Proline (f28, female rats): 0.9
- Serine (f28, female rats): 0.98
- Valine (f28, female rats): 0.98

- 3-O-Methylsphingosine (d18:1) (f7): 0.68 *
- 5-O-Methylsphingosine (d18:1) (f7): 0.66 *
- 16-Methylheptadecanoic acid (f7): 0.57 *
- Arachidonic acid (C20:cis[5,8,11,14]4) (f7): 0.71 *
- Ceramide (d18:1, C24:1) (f7): 0.57 *
- Ceramide (d18:1,C24:0) (f7): 0.53 *
- Cholesterol (f7): 0.72 *
- Cholesterolester No 01 (f7): 0.84^
- Dodecanol (f7): 0.84 *
- Elaidic acid (C18:trans[9]1) (f7): 0.66 *
- Galactose, lipid fraction (f7): 0.79^
- Glycerol phosphate, lipid fraction (f7): 0.72 *
- Heptadecanoic acid (C17:0) (f7): 0.85^
- Lignoceric acid (C24:0) (f7): 0.54 *
- Lysophosphatidylcholine (C17:0) (f7): 0.83 *
- Phosphate, lipid fraction (f7): 0.73 *
- Phosphatidylcholine (C18:0, C20:3) (f7): 0.85 *
- Phytosphingosine (f7): 0.64 *
- Sphingomyelin (d18:1, C16:0) (f7): 0.94^
- Sphingomyelin (d18:1,C24:0) (f7): 0.84 *
- Sphingomyelin (d18:2, C16:0) (f7): 0.67 *
- Sphingomyelin (d18:2,C18:0) (f7): 0.89 *
- Stearic acid (C18:0) (f7): 0.79 *
- TAG No 07 (f7): 0.91^
- Tricosanoic acid (C23:0) (f7): 0.71 *
- alpha-Tocopherol (f7): 0.82^
- beta-Sitosterol (f7): 0.46 *
- erythro-Sphingosine (d18:1) (f7): 0.66 *
- myo-Inositol, lipid fraction (f7): 0.87 *
- myo-Inositol-2-phosphate, lipid fraction (f7): 0.61 *
- threo-Sphingosine (d18:1) (f7): 0.75 *
- 3-O-Methylsphingosine (d18:1) (f14): 0.36 *
- 5-O-Methylsphingosine (d18:1) (f14): 0.34 *
- 16-Methylheptadecanoic acid (f14): 0.59 *
- Arachidonic acid (C20:cis[5,8,11,14]4) (f14): 0.32 *
- Ceramide (d18:1, C24:1) (f14): 0.6 *
- Ceramide (d18:1,C24:0) (f14): 0.57 *
- Cholesterol (f14): 0.36 *
- Cholesterolester No 01 (f14): 0.79 *
- Dodecanol (f14): 0.44 *
- Elaidic acid (C18:trans[9]1) (f14): 0.5 *
- Galactose, lipid fraction (f14): 0.48 *
- Glycerol phosphate, lipid fraction (f14): 0.34 *
- Heptadecanoic acid (C17:0) (f14): 0.61 *
- Lignoceric acid (C24:0) (f14): 0.33 *
- Lysophosphatidylcholine (C17:0) (f14): 0.72 *
- Phosphate, lipid fraction (f14): 0.57 *
- Phosphatidylcholine (C18:0, C20:3) (f14): 0.72 *
- Phytosphingosine (f14): 0.55 *
- Sphingomyelin (d18:1, C16:0) (f14): 0.79 *
- Sphingomyelin (d18:1,C24:0) (f14): 0.62 *
- Sphingomyelin (d18:2, C16:0) (f14): 0.58 *
- Sphingomyelin (d18:2,C18:0) (f14): 0.67 *
- Stearic acid (C18:0) (f14): 0.42 *
- TAG No 07 (f14): 0.73 *
- Tricosanoic acid (C23:0) (f14): 0.55 *
- alpha-Tocopherol (f14): 0.4 *
- beta-Sitosterol (f14): 0.3 *
- erythro-Sphingosine (d18:1) (f14): 0.37 *
- myo-Inositol, lipid fraction (f14): 0.48 *
- myo-Inositol-2-phosphate, lipid fraction (f14): 0.31 *
- threo-Sphingosine (d18:1) (f14): 0.44 *
- 3-O-Methylsphingosine (d18:1) (f28): 0.11 *
- 5-O-Methylsphingosine (d18:1) (f28): 0.13 *
- 16-Methylheptadecanoic acid (f28): 0.28 *
- Arachidonic acid (C20:cis[5,8,11,14]4) (f28): 0.16 *
- Ceramide (d18:1, C24:1) (f28): 0.39 *
- Ceramide (d18:1,C24:0) (f28): 0.36 *
- Cholesterol (f28): 0.16 *
- Cholesterolester No 01 (f28): 0.56 *
- Dodecanol (f28): 0.27 *
- Elaidic acid (C18:trans[9]1) (f28): 0.33 *
- Galactose, lipid fraction (f28): 0.24 *
- Glycerol phosphate, lipid fraction (f28): 0.19 *
- Heptadecanoic acid (C17:0) (f28): 0.47 *
- Lignoceric acid (C24:0) (f28): 0.15 *
- Lysophosphatidylcholine (C17:0) (f28): 0.57 *
- Phosphate, lipid fraction (f28): 0.36 *
- Phosphatidylcholine (C18:0, C20:3) (f28): 0.59 *
- Phytosphingosine (f28): 0.34 *
- Sphingomyelin (d18:1, C16:0) (f28): 0.51 *
- Sphingomyelin (d18:1,C24:0) (f28): 0.36 *
- Sphingomyelin (d18:2, C16:0) (f28): 0.33 *
- Sphingomyelin (d18:2,C18:0) (f28): 0.3 *
- Stearic acid (C18:0) (f28): 0.28 *
- TAG No 07 (f28): 0.4 *
- Tricosanoic acid (C23:0) (f28): 0.23 *
- alpha-Tocopherol (f28): 0.16 *
- beta-Sitosterol (f28): 0.13 *
- erythro-Sphingosine (d18:1) (f28): 0.13 *
- myo-Inositol, lipid fraction (f28): 0.23 *
- myo-Inositol-2-phosphate, lipid fraction (f28): 0.08 *
- threo-Sphingosine (d18:1) (f28): 0.24 *
Structure (SMILES): C=CCN1C[C@H](C(=O)N(CCCN(C)C)C(=O)NCC)C[C@@H]2c3cccc4[nH]cc(c34)C[C@H]21 [Cabergoline]

- Isopalmitic acid (C16:0) (f7, female rats): 0.83 *
- Alanine (f7, female rats): 0.63
- Arginine (f7, female rats): 0.74
- Ketoleucine (f7, female rats): 1.04
- Lactate (f7, female rats): 1.22
- Proline (f7, female rats): 0.81
- Serine (f7, female rats): 0.85
- Valine (f7, female rats): 0.91
- Isopalmitic acid (C16:0) (f14, female rats): 0.84
- Alanine (f14, female rats): 0.72
- Arginine (f14, female rats): 0.93
- Ketoleucine (f14, female rats): 0.94
- Lactate (f14, female rats): 0.66
- Proline (f14, female rats): 0.88
- Serine (f14, female rats): 0.98
- Valine (f14, female rats): 0.94
- Isopalmitic acid (C16:0) (f28, female rats): 1.53 *
- Alanine (f28, female rats): 0.84
- Arginine (f28, female rats): 0.92
- Ketoleucine (f28, female rats): 0.88
- Lactate (f28, female rats): 0.83
- Proline (f28, female rats): 0.85
- Serine (f28, female rats): 1.03
- Valine (f28, female rats): 1.14
Structure (SMILES): CCOC(=O)C(C)(C)Oc1ccc(Cl)cc1 [Clofibrate]
